Test results taken from patent publication US12188095B2, “Methods and compositions for identifying and treating patients with small cell lung cancer” (UNIVERSITY OF UTAH RESEARCH FOUNDATION, priority 2016, dated 2025).

Experiments:
[1] = test system: human cell lines; experiment: Human cell line viability with BCL2 inhibitors (CellTiter-Glo, GI50); assay type: cell-based; settings: 96 h
Protocol: Human cell lines were seeded in triplicate in white, flat-bottomed 96-well plates at 2000 cells/well. […] Drug was added again at 48 h to maintain the desired final concentration. After 96 h of treatment, cell viability was measured using Cell Titer Glo (CTG) assay (Promega, Madison, Wis., USA) and plates were read on a luminometer. Normalized, transformed dose response curves were generated and analyzed using GraphPad Prism (GraphPad, La Jolla, Calif., USA) to determine GI50 for each compound (see, FIG. 13). Error bars represent mean+/−SEM.

[2] = test system: human SCLC cell lines; experiment: Drug screening of human SCLC cell lines (CellTiter-Glo viability, GI50); assay type: cell-based; settings: 17 human SCLC cell lines, 72-96 hr; adjusted p: etoposide 0.038, alisertib 0.001, barasertib 0.022
Protocol: Drug screening. Human SCLC cell lines were cultured in RPMI or HITES as described before (Sos et al., 2012). […] After 96 hr, cell viability was analyzed using CTG reagent. […] For PF-670462 (Apexbio), MS436 (MedChem Express), barasertib/1152-HQPA (Apexbio), alisertib/MLN8237 (Apexbio) and milciclib/PHA-848125 (MedChem Express), all dissolved in DMSO, indicated cell lines were screened using the same protocol in 384-well format with 500 (adherent) or 5000 (suspension) cells per well (25 ml) and treated using a robotic system (CyBio CyBi well vario). Upon treatment, cells were incubated for 72 hr prior to addition of CTG reagent. Each cell line and concentration was analyzed in quadruplicate per experiment with n=3 independent trials.

[3] = test system: MYC; experiment: MYC protein level and stability (immunoblot, cycloheximide); assay type: cell-based; settings: mouse or human cells, also after cycloheximide block of protein synthesis
Protocol: Alternatively, cell lysates were prepared using RIPA buffer supplemented with protease inhibitors (Roche complete mini) and benzonase (Millipore)), separated on 4-20% Tris-glycine SDS-PAGE gels (Invitrogen), and transferred to PVDF-FL membrane (Millipore). Membranes were blocked using Li-Cor blocking buffer (1:10 in TBS) and incubated with primary antibodies in blocking solution with 0.2% Tween 20 overnight at 4° C. Prior to detection with a near-IR imaging system (Li-Cor Odyssey), membranes were washed in TBS-T, incubated with secondary antibodies and washed in TBS-T. For total Aurora A in FIG. 6H, the chemiluminescent signal (ECL, GE Healthcare) was captured with a CCD-camera (BioRad Geldoc XR+). […]
Protein stability cycloheximide (CHX) experiments. […] Protein lysates were prepared using RIPA buffer as described above, separated on 4-20% Tris-glycine gels (Invitrogen), and analyzed by immunoblot against Myc and Hsp90. Signals were quantified using Li-Cor Image Studio (Li-Cor Biosciences) and ratios of Myc/Hsp90 normalized to the 0 min time point. […]

[4] = test system: human SCLC cell lines infected with Bcl-2 vector; experiment: Viability of human SCLC cell lines overexpressing BCL2; assay type: cell-based; settings: human SCLC cell lines with pMSCV PIG Bcl-2 vs empty vector
Protocol: HEK293T cells were transfected with pMSCV PIG (Addgene Plasmid #21654) empty vector, or pMSCV PIG with an insert that encodes the human Bcl-2 gene in addition to pCMV-VSVG and pCMV delta R8.2 plasmids using TransIT-LT1 (Minis). Virus was collected at 48 and 72 hr post-transfection. Human SCLC cell lines were infected with viral supernatant. Infected cells were selected with puromycin for several days until all uninfected cells were killed by puromycin. […] Cell viability assays were carried out as previously described, with the addition of Alisertib+/−0.5 uM ABT-199 (ApexBio) using the infected human cell lines described above. Cell viability assays were carried out as previously described, with the addition of Alisertib+/−0.5 uM ABT-199 (ApexBio) using the infected human cell lines described above.

[5] = molecular target: T1, AURKB (Homo sapiens, UniProt Q96GD4); experiment: Immunoblot of Aurora kinase inhibition in treated cells; assay type: cell-based; settings: concentrations in the range of the GI50-value, mouse and human cells
T1 construct: Whole cell lysates analyzed by immunoblot for indicated antibodies; endogenous in cells; host or cells: GLC2 (human SCLC)
T1 sequence (Q96GD4 whole entry): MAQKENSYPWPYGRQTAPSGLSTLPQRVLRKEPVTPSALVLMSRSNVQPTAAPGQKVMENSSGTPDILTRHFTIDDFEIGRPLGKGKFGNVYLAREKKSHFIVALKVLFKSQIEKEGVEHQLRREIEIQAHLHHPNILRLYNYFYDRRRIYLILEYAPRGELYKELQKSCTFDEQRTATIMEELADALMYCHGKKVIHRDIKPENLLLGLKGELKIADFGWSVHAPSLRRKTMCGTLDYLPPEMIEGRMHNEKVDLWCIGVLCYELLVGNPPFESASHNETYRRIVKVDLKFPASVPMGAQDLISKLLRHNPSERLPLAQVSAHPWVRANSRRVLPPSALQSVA
Protocol: Immunoblot. For primary lung tumor lysates, mouse lung tumors were micro-dissected under sterile conditions, flash frozen and stored at −80° C. until use. Approximately 20-40 mg tumor pieces were disrupted and lysed to homogeneity with disposable pestles and cordless motor (VWR) in 200 μl RIPA buffer supplemented with protease inhibitors (Roche complete mini) and sodium orthovanadate (Sigma). Lysates are centrifuged at 13000 rpm for 15 minutes and supernatants are transferred to new tubes. For cell line lysates, total protein lysates are prepared as previously described, separated via SDS-PAGE and transferred to a PVDF membrane (Oliver et al., 2011). Membranes were blocked for 1 hr in 5% milk or 5% BSA, followed by overnight incubation with primary antibodies at 4° C. Membranes were washed for 6×5 min at room temperature in TBS-T. Mouse and rabbit HRP-conjugated secondary antibodies (Jackson ImmunoResearch, 1:10,000) were incubated for 1 hr at room temperature followed by washing 6×5 min at room temperature in TBS-T. For detection, membranes were exposed to WesternBright HRP Quantum substrate (Advansta) and detected on Hyblot CL film (Denville Scientific Inc). […]

[6] = test system: relapsed SCLC; settings: monotherapy, relapsed SCLC (Melichar et al., 2015); cited from earlier work
[7] = test system: RPM tumors; experiment: IHC and histology of tumors of treated RPM mice; assay type: in vivo, mouse
Protocol: Sections were dewaxed, rehydrated and subjected to high temperature antigen retrieval, 20 min boiling in a pressure cooker in 0.01 M citrate buffer, pH 6.0. Slides were blocked in 3% H202 for 15 min, blocked in 5% goat serum in PBS/0.1% Tween-20 (PBS-T) for 1 hr, and stained overnight in blocking buffer with primary antibodies. A HRP conjugated secondary antibody (Vector Laboratories) was used at 1:200 dilution in PBS-T, incubated for 45 min at room temperature, followed by DAB staining (Vector Laboratories). All staining was performed with Sequenza coverplate technology. Mouse on Mouse (M.O.M.) Basic Kit (Vector Laboratories) was used for staining with BrdU and Ki67 mouse primary antibodies. Tris buffered saline with Tween-20 (TBS-T) was used instead of PBS-T for phospho-protein antibodies. […]
For automated image analysis, IHC-stained slides were digitally scanned with the Aperio AT2 Scanscope and whole slides images were quantitatively analyzed with image analysis nuclear algorithm using Halo digital imaging analysis software (Indica Labs, NM, USA). […] Results are expressed as percent positive cells per tumor area.

[8] = test system: RPM mouse SCLC cell lines; experiment: Mouse cell viability and proliferation assays (CellTiter-Glo, GI50); assay type: cell-based; settings: 96 hrs; for GI50: RPM cell lines (n=7)
Protocol: Mouse cell viability and proliferation assays. Cells were seeded in triplicate (1500/well) in white, flat-bottom 96-well plates. […] After 96 hrs of treatment, cell viability was measured using Cell Titer Glo (CTG, Promega, Madison, Wis., USA) on a luminometer. Normalized, transformed dose response curves were generated and analyzed using GraphPad Prism (GraphPad, La Jolla, Calif., USA) to determine GI50 for each compound. […] Confluence percentage at each time point was calculated by the Essen IncuCyte software.

[9] = test system: RPM mice with Myc-driven SCLC; experiment: In vivo drug study in RPM mice (microCT tumor volume, survival); parameters: species or system mouse
Protocol: Alisertib (MLN8237, ApexBio, dissolved in 10% 2-hydroxy-beta-cyclo-dextrin and 1% sodium bicarbonate) was given 20 mg/kg twice daily by oral gavage on a schedule of 5 days on, 2 days off. […] For survival studies, endpoints include but are not limited to: difficulty breathing, eating or moving, obvious signs of pain or weight loss greater than 20% of initial body weight.
Mice were scanned for 34 sec under isoflurane anesthesia using a small animal Quantum FX microCT (PerkinElmer) at 45 μm resolution, 90 kV with 160 μA current. Images were acquired using PerkinElmer Quantum FX software and processed with Analyze 11.0 (AnalyzeDirect).
Scans were calibrated for Hounsfield Units (HU) by determining the mean value of “Bed” and “Air” for representative scans through the region of interest (ROI) tool and matching those values to their known HU (40 HU and −1000 HU, respectively) using the “Image Algebra” tool. Every image was then applied a 3×3×3 Median Filter from the “Spatial Filters” window. Thresholds of “Air” vs. “Dense Tissue” were established using the ROI and histogram tools. Every image was processed and normalized using the “Image Algebra” tool, followed by a 3×3×3 Median Filter from the “Spatial Filters” window. For Total Tumor Burden Analyses, the object map was created using the previously established thresholds; adjustments were made manually using “Spline Edit”, “Draw” and “Nudge Edit” tools. The object map was then morphed using the “Morphology” tool. The object map was made binary by using the threshold morphing tool. Then, the map was dilated 3 times using 5×5×5 Jack-shaped structuring elements. The holes were then filled on every 2D-orientation. The map was finally brought back to its original size using the “Erode” tool 3 times using 5×5×5 Jack-shaped structuring elements. The volumetric analyses were then performed in the ROI window using the pre-established thresholds and non-airspace was calculated using the formula: Non-airspace=1−(VolAir/ROIVol). For individual tumors, the 3D segmentation was performed semiautomatically using Analyze 11.0 “object extract tool”. Adjustments were made manually using the “Spline Edit”, “Draw” and “Nudge Edit” tools. The tumor segmentation was then processed using the semi-automatic tools “fill holes” and the object was propagated and smoothed in the axial, transverse and coronal planes. Volume quantification was obtained using the ROI tool as for total tumor burden analyses.
Total tumor volume was quantified relative to total air volume as a comprehensive measurement of treatment impact. […] The percent change in total tumor volume was analyzed at Day 19 (or at the time of death, if sooner) compared to Day 0 in each treatment group by waterfall plot.

[10] = test system: AURKA; experiment: Immunoblot of Aurora kinase inhibition in treated cells; assay type: cell-based; settings: concentrations in the range of the GI50-value, mouse and human cells
[11] = test system: RPM cells; experiment: Cell cycle analysis (PI staining, flow cytometry); assay type: cell-based, mouse; settings: 48 hr
Protocol: Cell cycle analysis. Cells were treated with indicated concentrations of alisertib (MLN8237, Selleckchem, Houston, Tex.) in 6-well plates and harvested with trypsin, washed twice in PBS, and 1×10^6 cells were fixed in ice-cold 70% ethanol overnight. Cells were washed 2× in PBS/1% BSA, treated with 100 μg/mL RNase for 10 min at 37° C., then stained with 25 μg/mL propidium iodide (PI) overnight at 4 C. Cells were analyzed on a BD FACScan flow cytometer and cell cycle analysis excluding cell doublets was performed using FlowJo software.

[12] = test system: MYC-high vs. MYC-low human SCLC cell lines; settings: 68 human SCLC cell lines binned by MYC expression, data of Polley et al., 2016; cited from earlier work

CC1(C)CCC(CN2CCN(c3ccc(C(=O)NS(=O)(=O)c4ccc(NCC5CCOCC5)c([N+](=O)[O-])c4)c(Oc4cnc5[nH]ccc5c4)c3)CC2)=C(c2ccc(Cl)cc2)C1 [ABT-199]
sensitivity (GI50) to BCL2 inhibition relative to MYC expression [1]: MYC expression anti-correlates with BCL2 expression and sensitivity to BCL2 inhibition

CN(C)CC[C@H](CSc1ccccc1)Nc1ccc(S(=O)(=O)NC(=O)c2ccc(N3CCN(Cc4ccccc4-c4ccc(Cl)cc4)CC3)cc2)cc1[N+](=O)[O-] [ABT-737]
sensitivity (GI50) to BCL2 inhibition relative to MYC expression [1]: MYC expression anti-correlates with BCL2 expression and sensitivity to BCL2 inhibition

COc1cc(Nc2ncc3c(n2)-c2ccc(Cl)cc2C(c2c(F)cccc2OC)=NC3)ccc1C(=O)O [alisertib]
drug response (GI50) of MYC-driven SCLCs versus those driven by MYCL or MYCN [2]: significantly more responsive
MYC protein level [3]: did not primarily lead to reduced MYC protein
Alisertib sensitivity on BCL2 overexpression [4]: BCL2 overexpression promotes Alisertib resistance
inhibition of AURKB [5]: dose-dependent inhibition
patients exhibiting partial responses [6]: ~20%
cells with polyploidy and aberrant mitoses ([7]; alisertib 20 mg/kg twice daily): dramatic enrichment
NEUROD1+ cells by IHC ([7]; compared to other treatment groups): significantly enriched
sensitivity of RPM cells compared to adenocarcinoma cell lines and non-MYC-driven cells (GI50) ([8]; RPM vs RPP, RP, KP cell lines): particularly sensitive
increase of median survival compared to untreated animals ([9]; Day 0 = start of treatment): 10 days
mice that survived 30 days ([9]; PBS 0%): 8%
tumor growth (total tumor volume by microCT) ([9]; three cycles, alisertib 20 mg/kg twice daily 5 days on 2 off, cisplatin 5 mg/kg + etoposide 10 mg/kg once weekly): modest delay in tumor growth
overall response (percent change in total tumor volume Day 0-19) compared to untreated animals ([9]; waterfall plot): did not impact overall response
inhibition of AURKA [10]: dose-dependent inhibition
subG1 cells ([11]; RPM cells compared to KP, RPP and RP cells): greater increase in subG1 cells
G2/M phase cells ([11]; RPM cells): dose-dependent increase in G2/M phase cells
efficacy (IC50) in MYC-high versus MYC-low cell lines [12]: increased efficacy in MYC-high cell lines

N.N.[Cl][Pt][Cl] [cisplatin]
GI50 [8]: high micromolar

COc1cc([C@@H]2c3cc4c(cc3[C@@H](O[C@@H]3O[C@@H]5CO[C@@H](C)O[C@H]5[C@H](O)[C@H]3O)[C@H]3COC(=O)[C@H]23)OCO4)cc(OC)c1O [etoposide]
GI50 [8]: nanomolar
